From PMC7450057, “Enhancing intracellular accumulation and target engagement of PROTACs with reversible covalent chemistry” (Nature Communications, 2020)

How the values were obtained:
[1] = Pharmacokinetics of RC-1 in mice; assay type: in vivo, ICR mice
Procedure: The pharmacokinetic profile of the BTK PROTAC RC-1 was evaluated in female ICR mice (weighing 22-28 g, n = 3). RC-1 was formulated in a […] solvent (30% PEG-400, 5% Tween 80, and 5% DMSO in deionized water) and was administered in a single IP injection (20 mg kg^−1). Blood samples (25 µL) were withdrawn from the tail vein at the time points of 10 min, 30 min, 1 h, 2 h, 4 h, 8 h, and up to 24 h after dosing. The blood samples were collected into 1.5 mL centrifuge tubes coated with 0.5 M EDTA and were immediately centrifuged at 12,000 × g at 4 °C for 15 min. The resultant plasma was extracted with 9 vol of acetonitrile (containing internal standard: 250 nM of RNC-Ctrl) and then were centrifuged at the same conditions described above. The supernatant was stored at −80 °C for liquid chromatography-mass spectrometry analysis. The standard curve was established by serially diluted RC-1 in plasma collected from naïve mice (from 5.0 to 0.003 μg mL^−1, 4-fold dilution). The PK parameters were calculated with the Microsoft Excel PK Solver.

[2] = target: T1, {BTK-PROTAC-CRBN} ternary complex (Homo sapiens, UniProt Q06187+Q96SW2); assay: BTK-SPPIER imaging of ternary complex formation in live cells; assay type: cell-based; conditions: HEK293T/17 cells, 10 µM
T1 construct: full-length CRBN was first cloned into pcDNA3 containing EGFP; expressed in transfected cells; host or cells: HEK293T/17
T1 sequence (Q06187 382-659 limits assumed): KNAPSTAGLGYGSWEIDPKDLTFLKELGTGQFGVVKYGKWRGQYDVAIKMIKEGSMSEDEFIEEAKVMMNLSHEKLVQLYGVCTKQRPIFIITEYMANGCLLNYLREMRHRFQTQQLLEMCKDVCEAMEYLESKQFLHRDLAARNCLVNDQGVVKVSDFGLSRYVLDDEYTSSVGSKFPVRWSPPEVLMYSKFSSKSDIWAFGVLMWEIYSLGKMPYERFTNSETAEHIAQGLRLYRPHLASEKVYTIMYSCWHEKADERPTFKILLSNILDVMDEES
T1 sequence (Q96SW2 whole entry): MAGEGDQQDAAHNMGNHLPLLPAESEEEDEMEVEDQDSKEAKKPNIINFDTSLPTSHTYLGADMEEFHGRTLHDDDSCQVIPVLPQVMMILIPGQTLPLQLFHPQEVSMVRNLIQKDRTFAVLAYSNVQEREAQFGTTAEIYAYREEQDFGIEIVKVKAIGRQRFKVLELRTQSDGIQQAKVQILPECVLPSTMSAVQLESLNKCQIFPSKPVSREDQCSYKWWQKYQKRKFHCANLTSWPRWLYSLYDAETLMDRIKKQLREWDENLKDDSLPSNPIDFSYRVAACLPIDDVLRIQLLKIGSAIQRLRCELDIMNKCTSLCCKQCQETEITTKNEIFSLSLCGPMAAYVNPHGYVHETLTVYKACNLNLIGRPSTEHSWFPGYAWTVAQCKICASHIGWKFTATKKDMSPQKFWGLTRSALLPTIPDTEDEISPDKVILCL
Description: To visualize small molecule-induced protein–protein interactions (PPIs), we recently applied fluorophore phase transition-based principle and designed a PPI assay named separation of phases-based protein interaction reporter (SPPIER)[36]. A SPPIER protein design includes three domains, a protein-of-interest, an enhanced GFP (EGFP), and a homo-oligomeric tag (HOTag). Upon small molecule-induced PPI between two proteins-of-interest, multivalent PPIs from HOTags drive EGFP phase separation, forming brightly fluorescent droplets. […] If PROTACs can induce {BTK-PROTAC-CRBN} ternary complex formation in cells, they will crosslink the BTK^KD-EGFP-HOTag6 tetramers and the CRBN-EGFP-HOTag3 hexamers to produce EGFP phase separation, which can be conveniently visualized with a fluorescence microscope. […]
HEK293T/17 cells were transiently transfected with the plasmid using calcium phosphate transfection reagent or lipofectamine. […] Fluorescence images were acquired with an exposure time of 50 ms for EGFP. […]
For analysis of the SPPIER signal, images were processed in imageJ. The sum of droplet pixel fluorescence intensity and cell pixel intensity was scored using the Analyze Particle function in imageJ.

[3] = female, mouse, ip, 20 mg kg^−1, i.p., ICR mice, plasma

Compound: CN(CCCNC(=O)CNc1cccc2c1C(=O)N(C1CCC(=O)NC1=O)C2=O)C(C)(C)C=C(C#N)C(=O)N1CCC[C@@H](n2nc(-c3ccc(Oc4ccccc4)cc3)c3c(N)ncnc32)C1 (some centres unmarked) [RC-1]
- AUC [1, 3]: 72 µM·h
- Cmax [1, 3]: 20 µM
- half-life ([1]; female, mouse, plasma, ip, 20 mg kg^−1, i.p., ICR mice, read-out: plasma half-life (t1/2) (converted)): 3.4 h
- plasma concentration maintained over 24 h ([1]; single i.p. injection 20 mg/kg): above 200 nM
- green fluorescent droplets (ternary complex formation) [2]: induced appreciable green fluorescent droplets
